The values that follow come from PubChem BioAssay AID652059 (Broad Institute, 2013).

In this assay the test system is D54 ERlucT glioma cells, NLG luciferase reporter, 24 h. Kind of assay: blockers of NLG in glioma reporter line – cell-based, D54 ERlucT glioma, luciferase, dry powder, set 5, dose response (AID 652059).

As for `CC(=O)N[C@H]1[C@@H](O[C@@H]2OC(C[C@@H](O)C3O[C@@H](n4ccc(=O)[nH]c4=O)[C@H](O)[C@@H]3O)[C@H](O)[C@H](O)[C@H]2NC(=O)/C=C/CCCCCCCCCCC(C)C)O[C@H](CO)[C@@H](O)[C@@H]1O` (stereo partly specified), the AC40 was 520 nM.
